The subject of assay [1] is PBMC. The experiment in a line: Hematotoxicity in human PHA/IL2-stimulated PBMC. Type of assay: cell-based.
Assay [2] is described as follows: Antiproliferative activity against human Caki2 cells after 72 hrs by MTT assay. Type of assay: functional, cell-based. As to conditions: CAKI-2, 72 h. (In general: Formazan colour is commonly taken as a measure of viable cells.)
The nature of assay [3]: Antiproliferative activity against human PC3 cells after 72 hrs by MTT assay. Type of assay: functional, cell-based. The note with it: PC-3, 72 h.
The subject of assay [4] is MDA-MB-231. In words: Antiproliferative activity against human MDA-MB-231 cells after 72 hrs by MTT assay. Type of assay: functional, cell-based. As to conditions: MDA-MB-231, 72 h.
The nature of assay [5]: Antiproliferative activity against human BxPC3 cells after 72 hrs by MTT assay. Type of assay: functional, cell-based. The note with it: BXPC-3, 72 h.
Assay [6] relates to NCI-H1975. The experiment in a line: Antiproliferative activity against human NCI-H1975 cells harboring EGFR L858R/T790M double mutant after 72 hrs by MTT assay. Type of assay: functional, cell-based. The note with it: NCI-H1975, 72 h.

We go through one compound from ChEMBL document CHEMBL3808348, “Rational Design, Synthesis, and Biological Evaluation of 7-Azaindole Derivatives as Potent Focused Multi-Targeted Kinase Inhibitors” (J Med Chem, 2016).

A word on the EC50: it is the concentration that produces a half-maximal response.

Consider `Cc1nc(Nc2ncc(C(=O)Nc3c(C)cccc3Cl)s2)cc(N2CCN(CCO)CC2)n1` [DASATINIB], for which the EC50 was determined as 1600 nM in assay [1]; 55 nM in assay [2]; 232 nM in assay [3]; 44 nM in assay [4]; 33 nM in assay [5]; 173 nM in assay [6].
